The test system of assay [1] is PC-9 cells (EGFR Ex19Del). The assay can be described thus: Potency Assay: pERK (SOS1 pERK IC50 Assay, AlphaLISA SureFire Ultra p-ERK1/2). In kind it is cell-based. To be noted: Homo sapiens; PC-9 cells (EGFR Ex19Del), 1 hour incubation, AlphaLISA p-ERK1/2; read-out: SOS1 pERK IC50. In outline: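 Cellular pERK1/2 by AlphaLISA SureFire Ultra after 1 h compound exposure (37° C., highest concentration 10 μM, 3-fold steps, duplicates) of EGFR Ex19Del PC-9 cells seeded the day before. A 4-parameter fit of signal versus log concentration gives IC50.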
On the technique in general: In Alpha technology, singlet oxygen from a donor bead excites a nearby acceptor bead.

In assay [2] the target is T1, SOS1 catalytic domain (residues 564-1049) (Homo sapiens, UniProt Q07889).
T1 sequence (Q07889 564-1049): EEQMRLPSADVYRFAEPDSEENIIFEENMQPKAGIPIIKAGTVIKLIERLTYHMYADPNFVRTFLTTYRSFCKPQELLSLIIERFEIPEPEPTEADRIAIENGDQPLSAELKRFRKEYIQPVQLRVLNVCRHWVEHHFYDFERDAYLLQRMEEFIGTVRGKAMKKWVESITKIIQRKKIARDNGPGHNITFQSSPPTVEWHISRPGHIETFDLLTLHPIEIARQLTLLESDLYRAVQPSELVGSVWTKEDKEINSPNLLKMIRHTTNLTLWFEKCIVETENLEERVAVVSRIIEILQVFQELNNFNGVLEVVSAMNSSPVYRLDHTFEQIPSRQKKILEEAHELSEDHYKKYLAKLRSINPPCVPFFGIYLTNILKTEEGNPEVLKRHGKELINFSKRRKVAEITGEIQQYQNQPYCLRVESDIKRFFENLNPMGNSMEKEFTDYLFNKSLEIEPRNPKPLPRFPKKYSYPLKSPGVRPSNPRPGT
Description: Mode of Action Assay: inhibition of SOS1 nucleotide exchange activity (SOS1 TR-FRET IC50 Assay). (In general: Time-resolved FRET reads energy transfer from a long-lived donor to a nearby acceptor.)

Assay [3] concerns the target T1, SOS1 catalytic domain (residues 564-1049). The assay can be described thus: Potency Assay: binding affinity to SOS1 using Surface Plasmon Resonance (SPR). To be noted: immobilized SOS1 catalytic domain (residues 564-1049), read-out: SOS1 SPR Equilibrium Kd. On the set-up: SOS1 catalytic domain (residues 564-1049) immobilized on a sensor chip. In outline: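 Kd was obtained by plotting binding response, taken just before association ended, versus compound concentration on a Biacore 8K. Compounds flowed at 50 μL/min over streptavidin-captured avi-SOS1 catalytic domain (~6000 RU), followed by buffer dissociation; HEPES 0.01 M/NaCl 0.15 M/0.05% P20 buffer, double-referenced.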

Each structure is given as a SMILES string.

Usually IC50 stands for the concentration that gives 50% inhibition. By Kd is commonly meant the concentration at which binding is half-saturated.

Regarding `C[C@@H]1CN(C(=O)N2Cc3nc(Cl)nc(N[C@H](C)c4cc(N)cc(C(F)(F)F)c4)c3C2)C[C@H](C)N1` [Example 146], the IC50 in assay [1] and in assay [2] was less than 1 µM in each case. In addition, the Kd in assay [3] is less than 0.4 µM.

With `C[C@@H](Nc1nc(Cl)nc2c1CN(C(=O)N1CCS(=O)(=O)CC1)C2)c1cc(N)cc(C(F)(F)F)c1` [Example 148], the IC50 in assay [1] and in assay [2] was less than 1 µM each time. The Kd in assay [3] was less than 0.4 µM.

In the case of `C[C@@H](Nc1nc(Cl)nc2c1CN(C(=O)N1CCOc3cccnc31)C2)c1cc(N)cc(C(F)(F)F)c1` [Example 160], the IC50 in assay [1] and in assay [2] was less than 1 µM each time. In addition, the Kd in assay [3] is less than 0.4 µM.

On to `C[C@@H](Nc1nc(Cl)nc2c1CC(C(=O)N1CCOCC1)CC2)c1cc(N)cc(C(F)(F)F)c1` (stereo partly drawn) [Example 165, N-[(1R)-1-[3-amino-5-(trifluoromethyl)phenyl]ethyl]-2-chloro-6-(morpholine-4-carbonyl)-5,6,7,8-tetrahydroquinazolin-4-amine], for which the IC50 in assay [1] and in assay [2] was less than 1 µM in each case. The Kd in assay [3] was less than 0.4 µM.

On to `COC1(C(=O)N2Cc3nc(Cl)nc(N[C@H](C)c4cccc(C(F)(F)CO)c4)c3C2)CCOCC1` [Example 167, [2-chloro-4-[[(1R)-1-[3-(1,1-difluoro-2-hydroxy-ethyl)phenyl]ethyl]amino]-5,7-dihydropyrrolo[3,4-d]pyrimidin-6-yl]-(4-methoxytetrahydropyran-4-yl)methanone], for which the concentration for half-maximal inhibition (IC50) in assay [1] and in assay [2] was less than 1 µM each time. The Kd in assay [3] is less than 0.4 µM.

For the compound `C[C@@H](Nc1nc(Cl)nc2c1CN(C(=O)N1CCOCC1)C2)c1cccc(C(F)(F)CO)c1` [Example 168, [2-chloro-4-[[(1R)-1-[3-(1,1-difluoro-2-hydroxy-ethyl)phenyl]ethyl]amino]-5,7-dihydropyrrolo[3,4-d]pyrimidin-6-yl]-morpholino-methanone], the IC50 in assay [1] and in assay [2] was less than 1 µM each time. In assay [3], the Kd is less than 0.4 µM.

For the compound `CC(Nc1nc(Cl)nc2c1CN(C(=O)N1CCOCC1)C2)c1cccc(C(F)(F)CO)c1` (stereo not drawn) [Example 171, [2-chloro-4-[1-[3-(1,1-difluoro-2-hydroxy-ethyl)phenyl]ethylamino]-5,7-dihydropyrrolo[3,4-d]pyrimidin-6-yl]-morpholino-methanone], the IC50 in assay [1] and in assay [2] was less than 1 µM each time. The Kd in assay [3] is less than 0.4 µM.

In the case of `COC1CCN(S(=O)(=O)N2CCc3nc(Cl)nc(N[C@H](C)c4cc(N)cc(C(F)(F)F)c4)c3C2)CC1` [Example 179], the IC50 in assay [1] and in assay [2] was less than 1 µM throughout. Also, the Kd in assay [3] is less than 0.4 µM.

For `C[C@@H](Nc1nc(Cl)nc2c1CN(S(=O)(=O)N1CC3CCC(C1)O3)CC2)c1cc(N)cc(C(F)(F)F)c1` [Example 180], the IC50 in assay [1] and in assay [2] was less than 1 µM in each case. Also, the Kd in assay [3] is less than 0.4 µM.

`C[C@@H](Nc1nc(Cl)nc2c1CN(S(=O)(=O)N1CCOCC1)CC2)c1cccc(C(F)(F)CO)c1` [Example 181]: the IC50 in assay [1] and in assay [2] was less than 1 µM throughout. Besides, the Kd in assay [3] is less than 0.4 µM.

Consider `C[C@@H](Nc1nc(Cl)nc2c1CN(S(=O)(=O)N1CCNCC1)CC2)c1cc(N)cc(C(F)(F)F)c1` [Example 183], for which the IC50 in assay [1] and in assay [2] was less than 1 µM in each case. For the same compound, in assay [3], the dissociation constant Kd is less than 0.4 µM.

Turning to `C[C@@H](Nc1nc(Cl)nc2c1CN(S(=O)(=O)N1CCN(C)CC1)CC2)c1cc(N)cc(C(F)(F)F)c1` [Example 184], the IC50 in assay [1] and in assay [2] was less than 1 µM in each case. Moreover, the Kd in assay [3] is less than 0.4 µM.

Consider `C[C@@H](Nc1nc(Cl)nc2c1CN(S(=O)(=O)N1CCOCC1)CC2)c1cccc(C(F)(F)F)c1` [Example 185], for which the results for the IC50 in assay [1] and in assay [2] were more than 1 µM and less than 1 µM, respectively. Further, the Kd in assay [3] was more than 0.4 µM.

`C[C@@H](Nc1nc(Cl)nc2c1CN(C(=O)C13CC(O)(C1)C3)CC2)c1cc(N)cc(C(F)(F)F)c1` [Example 193]: the IC50 in assay [1] and in assay [2] was more than 1 µM each time. In addition, the Kd in assay [3] was less than 0.4 µM.

Consider `C[C@@H](Nc1nc(Cl)nc2c1CN(C(=O)C1(C#N)CC1)CC2)c1cc(N)cc(C(F)(F)F)c1` [Example 194], for which the IC50 is less than 1 µM in assay [1] and more than 1 µM in assay [2]. The Kd in assay [3] is more than 0.4 µM.

`C[C@@H](Nc1nc(Cl)nc2c1CN(C(=O)[C@@H]1C[C@@H]1C#N)CC2)c1cc(N)cc(C(F)(F)F)c1` [Example 205]: the figures for the IC50 in assay [1] and in assay [2] were less than 1 µM and more than 1 µM, respectively. Also, in assay [3], the Kd is less than 0.4 µM.

As for `C[C@@H](Nc1nc(Cl)nc2c1CN(C(=O)C13COC(C1)C3)CC2)c1cc(N)cc(C(F)(F)F)c1` [Example 212], the half-inhibitory concentration (IC50) in assay [1] was less than 1 µM; in assay [2], more than 1 µM. Further, the Kd in assay [3] was more than 0.4 µM.

As for `C[C@@H](Nc1nc(Cl)nc2c1CN(C(=O)C1CC1)CC2)c1cc(N)cc(C(F)(F)F)c1` [Example 219], the concentration for half-maximal inhibition (IC50) in assay [1] and in assay [2] was less than 1 µM each time. For the same compound, the dissociation constant Kd in assay [3] is less than 0.4 µM.

Take `COC(=O)N1C[C@@H]2COC[C@]2(C(=O)N2CCc3nc(Cl)nc(N[C@H](C)c4cc(N)cc(C(F)(F)F)c4)c3C2)C1` [Example 221]: the values for the IC50 in assay [1] and in assay [2] were more than 1 µM and less than 1 µM, respectively. Further, the Kd in assay [3] was more than 0.4 µM.

For `C[C@@H](Nc1nc(Cl)nc2c1CN(C(=O)[C@@]13COC[C@@H]1CN(S(C)(=O)=O)C3)CC2)c1cc(N)cc(C(F)(F)F)c1` [Example 222], the IC50 in assay [1] and in assay [2] was more than 1 µM throughout. Besides, the Kd in assay [3] was more than 0.4 µM.

`C[C@@H](Nc1nc(Cl)nc2c1CN(C(=O)[C@@H]1C[C@H]1C#N)CC2)c1cc(N)cc(C(F)(F)F)c1` [Example 223]: the IC50 in assay [1] and in assay [2] was less than 1 µM in each case. For the same compound, the Kd in assay [3] is less than 0.4 µM.

Turning to `C[C@@H](Nc1nc(Cl)nc2c1CN(C(=O)C1(CO)COC1)CC2)c1cc(N)cc(C(F)(F)F)c1` [Example 225], the IC50 in assay [1] and in assay [2] was less than 1 µM each time. The Kd in assay [3] is less than 0.4 µM.

`C[C@@H](Nc1nc(Cl)nc2c1CN(C(=O)C1(O)COC1)CC2)c1cc(N)cc(C(F)(F)F)c1` [Example 226]: the IC50 in assay [1] and in assay [2] was more than 1 µM in each case. Further, the Kd in assay [3] is less than 0.4 µM.

Take `COC1(C(=O)N2Cc3nc(Cl)nc(N[C@H](C)c4cccc(C(F)(F)F)c4)c3C2)CCOCC1` [Example 227]: the concentration for half-maximal inhibition (IC50) in assay [1] and in assay [2] was less than 1 µM each time. Also, in assay [3], the Kd was less than 0.4 µM.

Consider `C[C@@H](Nc1nc(Cl)nc2c1CN(C(=O)c1ccnnc1)CC2)c1cc(N)cc(C(F)(F)F)c1` [Example 228], for which the IC50 in assay [1] is more than 1 µM; in assay [2], less than 1 µM. In assay [3], the equilibrium dissociation constant (Kd) is less than 0.4 µM.

`COc1cc(C(=O)N2CCc3nc(Cl)nc(N[C@H](C)c4cc(N)cc(C(F)(F)F)c4)c3C2)nc(OC)n1` [Example 229]: the IC50 in assay [1] and in assay [2] was more than 1 µM in each case. Further, the Kd in assay [3] was more than 0.4 µM.

For `COc1nccnc1C(=O)N1CCc2nc(Cl)nc(N[C@H](C)c3cc(N)cc(C(F)(F)F)c3)c2C1` [Example 231], the concentration for half-maximal inhibition (IC50) in assay [1] and in assay [2] was more than 1 µM throughout. The Kd in assay [3] is more than 0.4 µM.

On to `COc1cccnc1C(=O)N1CCc2nc(Cl)nc(N[C@H](C)c3cc(N)cc(C(F)(F)F)c3)c2C1` [Example 232], for which the concentration for half-maximal inhibition (IC50) in assay [1] and in assay [2] was more than 1 µM in each case. In assay [3], the equilibrium dissociation constant (Kd) was more than 0.4 µM.

As to `C[C@@H](Nc1nc(Cl)nc2c1CN(C(=O)c1ccncn1)CC2)c1cc(N)cc(C(F)(F)F)c1` [Example 233], the IC50 in assay [1] and in assay [2] was more than 1 µM each time. The Kd in assay [3] is more than 0.4 µM.

In the case of `COc1nccc(C(=O)N2CCc3nc(Cl)nc(N[C@H](C)c4cc(N)cc(C(F)(F)F)c4)c3C2)n1` [Example 234], the IC50 in assay [1] and in assay [2] was more than 1 µM throughout. For the same compound, in assay [3], the Kd is more than 0.4 µM.

Turning to `C[C@@H](Nc1nc(Cl)nc2c1CN(C(=O)c1cccnn1)CC2)c1cc(N)cc(C(F)(F)F)c1` [Example 235], the values for the IC50 in assay [1] and in assay [2] were more than 1 µM and less than 1 µM, respectively. Besides, in assay [3], the Kd is more than 0.4 µM.

As for `C[C@@H](Nc1nc(Cl)nc2c1CN(C(=O)c1ncccn1)CC2)c1cc(N)cc(C(F)(F)F)c1` [Example 236], the IC50 in assay [1] and in assay [2] was more than 1 µM each time. In addition, in assay [3], the Kd was more than 0.4 µM.

The record behind these values is patent publication US20230096028A1, “BICYCLIC HETEROCYCLYL COMPOUNDS AND USES THEREOF” (Revolution Medicines, Inc., priority 2019, published 2023).
